The text below walks through data of PMC7503500, “A Structure-Activity Relationship Comparison of Imidazodiazepines Binding at Kappa, Mu, and Delta Opioid Receptors and the GABAA Receptor” (Molecules, 2020).

The target of one data set is T1, human KOR (Homo sapiens, UniProt P41145).
T1 construct: expressed in transfected cells; host or cells: HEK293T
Description: cell-based.

The target of another data set is µ opioid receptor (MOR) (Homo sapiens, UniProt P35372). Description: Radioligand competition binding, MOR ([3H]-DAMGO), HEK293 cell homogenates. The conditions noted are these: for inhibition at 10 µM: read-out: MOR % (percent inhibition), at 10,000 nM; for inhibition at 10 µM / MOR % (percent inhibition): [3H]-DAMGO; for MOR % (percent inhibition): at 10,000 nM.
Data set [1] relates to synaptic benzodiazepine-sensitive receptors (BZR), GABAAR. As to the kind of experiment: 3H-flunitrazepam binding, rat brain homogenate. The conditions noted are these: for BZR % (percent inhibition): at 10,000 nM; for Ki: read-out: BZR (Ki).
For the next data set, the target named is δ opioid receptor (DOR) (Homo sapiens, UniProt P41143). Description: Radioligand competition binding, DOR ([3H]-DADLE), HEK293 cell homogenates. The conditions noted are these: for inhibition at 10 µM: read-out: DOR % (percent inhibition), at 10,000 nM; for DOR % (percent inhibition): at 10,000 nM.
The next data set addresses κ opioid receptor (KOR) (Homo sapiens, UniProt P41145). Description: Radioligand competition binding, KOR ([3H]-U69593), HEK293 cell homogenates. The note with it: for inhibition at 10 µM: read-out: KOR % (percent inhibition), at 10,000 nM; for inhibition at 10 µM / KOR % (percent inhibition): [3H]-U69593; for KOR % (percent inhibition): at 10,000 nM.
On the set-up of data set [2]: method as in PMID 32511908. The note with it: both phases; cited from earlier work.
A further data set has as its system activated microglia. On the set-up: method as in PMID 32511908. The note with it: reversed by KOR antagonist norbinaltorphimine; cited from earlier work.
Details of data set [3]: method as in PMID 32511908. The note with it: cited from earlier work.
The mark [4] stands for this setting: read-out: KOR (Ki), [3H]-U69593, HEK293 homogenates.

Structures are written as SMILES. Several values for one entry are separate records, joined by “and”; a condition that tells them apart may be missing. Identical values can stand only once. Like-named read-outs stand apart in the source and are kept apart here.

Take `C#Cc1ccc2c(c1)C(c1ccccc1F)=N[C@@H](C)c1c(C(=O)OC(C)(C)C)ncn1-2` [GL-I-30]: at human KOR (BRET GαoA recruitment), the “Efficacy in comparison to full agonist salvinorin A” value is given as 100%. Further, the half-maximal effective concentration (EC50) on human KOR (BRET, n = 24, mean and SEM, read-out: EC50, recruitment of GαoA protein to KOR) was 32 nM and 32.3 nM. The values for the inhibitory constant (Ki) (on µ opioid receptor (MOR); in data set [1]; on κ opioid receptor (KOR)) were 1850 nM, 177 nM and 27 nM, respectively. Moreover, the figures for the inhibition at 10 µM at µ opioid receptor (MOR), on δ opioid receptor (DOR) and on κ opioid receptor (KOR) were 54%, 7% and 95%, respectively. Moreover, in data set [1], the “BZR % (percent inhibition)” value came out at 96%. In addition, at κ opioid receptor (KOR) (KOR vs BZR Ki), the “Selectivity in respect to BZR binding” value is on record as 6.5 fold. Further, the “Opioid receptor selectivity in comparison to MOR” value on κ opioid receptor (KOR) (KOR vs MOR Ki) was determined as 68 fold.

On to `CCc1noc(-c2ncn3c2[C@@H](C)N=C(c2ccccc2F)c2cc(C4CC4)ccc2-3)n1` [GL-IV-03], for which, in data set [2], the “Agitation response in the formalin nociception test” value is recorded as “alleviated the agitation response in both phases”. Besides, the “MOR % (percent inhibition)” value on µ opioid receptor (MOR) was 25%. For the same compound, the “BZR % (percent inhibition)” value in data set [1] turned out to be 65%. On δ opioid receptor (DOR), the “DOR % (percent inhibition)” value came out at 67%. In addition, the “Production of nitric oxide (NO) by activated microglia” value in the data set on activated microglia is on record as “reduced the production of nitric oxide (NO)”. In data set [3], the “Impairment of sensorimotor coordination” value is listed as “without inducing impairment of sensorimotor coordination”. Besides, the “KOR % (percent inhibition)” value at κ opioid receptor (KOR) worked out at 91%. Also, the inhibition constant (Ki) at κ opioid receptor (KOR) (setting [4]) came out at 232 nM.

Consider `C#Cc1ccc2c(c1)C(c1ccccc1F)=N[C@H](C)c1c(-c3nc(C(C)C)no3)ncn1-2` [MP-IV-010], for which, on µ opioid receptor (MOR), the “MOR % (percent inhibition)” value came to 33%. Also, the “BZR % (percent inhibition)” value in data set [1] is reported as 64%. The inhibition constant Ki worked out at 814 nM in data set [1] and 145 nM on κ opioid receptor (KOR) (setting [4]). The “DOR % (percent inhibition)” value at δ opioid receptor (DOR) worked out at 5%. Besides, the “KOR % (percent inhibition)” value at κ opioid receptor (KOR) turned out to be 94%.

With `C#Cc1ccc2c(c1)C(c1ccccc1F)=N[C@H](C)c1c(C(=O)O)ncn1-2` [SH-053-2′F-R-CH3-Acid], the inhibition at 10 µM on µ opioid receptor (MOR) was 0%; on δ opioid receptor (DOR) it was 0%; at κ opioid receptor (KOR) it was 16%. Also, the “BZR % (percent inhibition)” value in data set [1] was found to be 93%. In addition, in data set [1], the Ki was 37 nM.

For `C#Cc1ccc2c(c1)C(c1ccccc1F)=N[C@H](C)c1c(C(=O)OCC)ncn1-2` [SH-053-2′F-R-CH3], the values for the inhibition at 10 µM at µ opioid receptor (MOR), on δ opioid receptor (DOR) and at κ opioid receptor (KOR) were 28%, 32% and 89%, respectively. Moreover, the “BZR % (percent inhibition)” value in data set [1] is reported as 85%. Also, the values for the Ki (in data set [1]; at κ opioid receptor (KOR)) were 379 nM and 240 nM, respectively.

`C#Cc1ccc2c(c1)C(c1ccccc1F)=N[C@@H](C)c1c(C(=O)O)ncn1-2` [SH-053-2′F-S-CH3-Acid]: the inhibition at 10 µM at µ opioid receptor (MOR) was 0%; at δ opioid receptor (DOR) it was 18%; on κ opioid receptor (KOR), 20%. The “BZR % (percent inhibition)” value in data set [1] is 93%. Besides, the Ki in data set [1] is 29 nM.

With `C#Cc1ccc2c(c1)C(c1ccccc1F)=N[C@@H](C)c1c(C(=O)OCC)ncn1-2` [SH-053-2′F-S-CH3], the values for the inhibition at 10 µM on µ opioid receptor (MOR), on δ opioid receptor (DOR) and at κ opioid receptor (KOR) were 7%, 36% and 93%, respectively. For the same compound, the “BZR % (percent inhibition)” value in data set [1] is 92%. The results for the inhibition constant Ki (in data set [1]; on κ opioid receptor (KOR)) were 111 nM and 90 nM, respectively.

With `CCOC(=O)c1ncn2c1[C@@H](C)N=C(c1ccccc1F)c1cc(Br)ccc1-2` [SH-I-047], on µ opioid receptor (MOR), the “MOR % (percent inhibition)” value was found to be 16%. In addition, in data set [1], the “BZR % (percent inhibition)” value is given as 84% and the inhibition constant Ki came to 238 nM. Also, the inhibition at 10 µM at δ opioid receptor (DOR) was determined as 0%. Further, on κ opioid receptor (KOR), the inhibition at 10 µM is 82%.

As to `CCOC(=O)c1ncn2c1[C@H](C)N=C(c1ccccc1F)c1cc(Br)ccc1-2` [SH-I-048B], the “MOR % (percent inhibition)” value at µ opioid receptor (MOR) is given as 0%. For the same compound, in data set [1], the “BZR % (percent inhibition)” value was determined as 61% and the Ki was found to be 96 nM. Besides, the “DOR % (percent inhibition)” value on δ opioid receptor (DOR) was determined as 0%. Moreover, the “KOR % (percent inhibition)” value at κ opioid receptor (KOR) came to 95%.

Consider `Fc1ccccc1C1=NCc2c(-c3cnco3)ncn2-c2ccc(Br)cc21` [SH-I-85], for which the inhibition at 10 µM was 16% on µ opioid receptor (MOR), 33% at δ opioid receptor (DOR) and 91% at κ opioid receptor (KOR). Moreover, in data set [1], the “BZR % (percent inhibition)” value amounted to 99%. The inhibition constant (Ki) in data set [1] worked out at 11 nM; at κ opioid receptor (KOR), 162 nM.

`C#Cc1ccc2c(c1)C(c1ccccn1)=NCc1c(C(=O)O)ncn1-2` [SR-II-54]: the inhibition at 10 µM at µ opioid receptor (MOR) came to 8%; on δ opioid receptor (DOR), 1%; at κ opioid receptor (KOR) it was 9%. Also, in data set [1], the “BZR % (percent inhibition)” value was determined as 80%. For the same compound, in data set [1], the inhibitory constant (Ki) was determined as 69 nM.
